Two compounds from US12029768B2, “Probiotics useful for eradicating helicobacter pylori infection” (DACF S.r.l., priority 2018, dated 2024) can be followed below.

For the test, the system named is H. pylori. The experiment in a line: Checkerboard method, adjuvant effect of probiotic supernatant on antibiotic MIC/MBC. The format is cell-based, Helicobacter pylori. To be noted: for MBC / MIC: Helicobacter pylori; for MBC: read-out: MBC towards the H. pylori strain; for MIC: read-out: MIC towards the H. pylori strain.
The mark [1] stands for this setting: probiotic supernatant (L. acidophilus La-14) added to antibiotic.

Like-named read-outs stand apart in the source and are kept apart here.

For the compound `CC[C@H]1OC(=O)[C@H](C)[C@@H](O[C@H]2C[C@@](C)(OC)[C@@H](O)[C@H](C)O2)[C@H](C)[C@@H](O[C@@H]2O[C@H](C)C[C@H](N(C)C)[C@H]2O)[C@](C)(OC)C[C@@H](C)C(=O)[C@H](C)[C@@H](O)[C@]1(C)O` [Clarithromycin, clarithromycin], under “antibiotic alone”, the minimum bactericidal concentration (MBC) stood at 24 µg/mL and the minimal inhibitory concentration (MIC) worked out at 12 µg/mL. For the same compound, under setting [1], the MBC is 0.25 µg/mL, the minimum inhibitory concentration (MIC) was 0.125 µg/mL, the “MIC with probiotic supernatant as fraction of the original MIC” value was 1/100 and the “increase of antibiotic activity against H. pylori” value is recorded as 100 folds.

As for `CC1(C)S[C@@H]2[C@H](NC(=O)[C@H](N)c3ccc(O)cc3)C(=O)N2[C@H]1C(=O)O` [Amoxicillin, amoxicillin], under “antibiotic alone”, the MBC was 0.5 µg/mL and the MIC stood at 0.25 µg/mL. Besides, under setting [1], the minimum bactericidal concentration (MBC) was determined as 0.0005 µg/mL, the MIC was determined as 0.00025 µg/mL, the “MIC with probiotic supernatant as fraction of the original MIC” value is 1/1000 and the “increase of antibiotic activity against H. pylori” value is 1000 folds.

What is called MBC is the smallest concentration meeting the test's criterion for killing. As usually defined, the MIC is the least concentration at which growth counts as inhibited.
